From patent publication US10588317B2, “Isoxazoline-substituted benzamides and analogues as insecticides” (priority 2015, dated 2020)

Legend:
Assay type in all cases: in vivo
Diabrotica balteata = Diabrotica balteata (corn root worm), sprayed maize sprouts; conditions: 96 h, application rate 200 ppm, L2 larvae, 4 days after infestation, read-out: effect in at least one of the two categories (mortality or growth inhibition)
Summary of the method: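 Read-out at 4 days post-infestation: mortality and growth inhibition relative to untreated samples. Test solutions (200 ppm, from DMSO stocks) were sprayed onto agar-held maize sprouts, which after drying received 6–10 L2 larvae per well.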

Thrips tabaci = Thrips tabaci (onion thrips): feeding/contact activity; conditions: 144 h, application rate 200 ppm, Thrips population of mixed ages, 6 days after infestation, read-out: mortality
Method: (§1) Sunflower leaf discs were placed on agar in 24-well microtiter plates and sprayed with aqueous test solutions prepared from 10'000 ppm DMSO stock solutions. After drying the leaf discs were infested with a Thrips population of mixed ages. The samples were assessed for mortality 6 days after infestation.

Plutella xylostella = Plutella xylostella (diamond back moth), artificial diet; conditions: 120 h, application rate 200 ppm, L2 larvae, 5 days after infestation, read-out: effect in at least one of the two categories (mortality or growth inhibition)
Summary of the method: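 L2 larvae (10-15 per well) fed on compound-treated, dried artificial diet; test solutions diluted in water from 10'000 ppm DMSO stocks. Readout 5 days post-infestation as mortality or growth inhibition versus untreated diet, with at least 80% effect at 200 ppm as threshold.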

Spodoptera littoralis [1] = experiment: Spodoptera littoralis (Egyptian cotton leaf worm), sprayed cotton leaf discs; conditions: foliar, 72 h, application rate 200 ppm, L1 larvae, 3 days after infestation, read-out: control (mortality, anti-feeding effect, growth inhibition)
Summary of the method: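 Five first-instar larvae placed on dried cotton leaf discs (on agar) previously sprayed with aqueous dilutions of 10'000 ppm DMSO stocks. Scored at 3 days against untreated discs for mortality, feeding inhibition and growth inhibition; any category above untreated counts as control.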

Tetranychus urticae = Tetranychus urticae (two-spotted spider mite): feeding/contact activity; conditions: 192 h, application rate 200 ppm, mixed population (mobile stages), 8 days after infestation, read-out: mortality
Method: as §1, with “Bean” for “Sunflower”, “discs” for “discs were placed”, “were” for “and”, “mite” for “Thrips”, “on mixed population (mobile stages) 8” for “6”

Myzus persicae = Myzus persicae (green peach aphid): feeding/contact activity; conditions: 144 h, application rate 200 ppm, aphid population of mixed ages, 6 days after infestation, read-out: mortality
Method: Sunflower leaf discs were placed onto agar in a 24-well microtiter plate and sprayed with aqueous test solutions prepared from 10'000 ppm DMSO stock solutions. After drying, the leaf discs were infested with an aphid population of mixed ages. The samples were assessed for mortality 6 days after infestation.

Spodoptera littoralis [2] = experiment: Spodoptera littoralis (Egyptian cotton leaf worm), uptake by lettuce roots from agar; conditions: 144 h, read-out: effect in at least one of the three categories (mortality, anti-feeding, or growth inhibition); for percent effect (mortality, anti-feeding or growth inhibition) at 12.5 ppm: test rate 12.5 ppm, eggs, 6 days after infestation
Text: Test compounds were applied by pipette from 10'000 ppm DMSO stock solutions into 24-well plates and mixed with agar. Lettuce seeds were placed onto the agar and the multi well plate was closed by another plate which contained also agar. After 7 days the compound was absorbed by the roots and the lettuce grew into the lid plate. The lettuce leaves were then cut off into the lid plate. Spodoptera eggs were pipetted through a plastic stencil onto a humid gel blotting paper and the lid plate was closed with it. The samples were assessed for mortality, anti-feedant effect and growth inhibition in comparison to untreated samples 6 days after infestation.
The following compounds gave an effect of at least 80% in at least one of the three categories (mortality, anti-feeding, or growth inhibition) at a test rate of 12.5 ppm: […]

Euschistus heros = Euschistus heros (neotropical brown stink bug), sprayed soybean leaves; conditions: 120 h, application rate 200 ppm, N2 nymphs, 5 days after infestation, read-out: effect in at least one of the two categories (mortality or growth inhibition)
Summary of the method: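 Scored 5 days post-infestation versus untreated controls, for both mortality and growth inhibition: N2 nymphs placed on agar-mounted soybean leaves previously sprayed at 200 ppm with aqueous test solutions from DMSO stocks and left to dry.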

Cc1cc(C2=NO[C@@](c3cc(Cl)c(Cl)c(Cl)c3)(C(F)(F)F)C2)ccc1C(=O)NC1CON(S(N)(=O)=O)C1 (some centres unmarked) [Compound A35]
≥ 80%: percent effect (mortality or growth inhibition) at 200 ppm (Diabrotica balteata) | mortality at 200 ppm (Thrips tabaci) | percent effect (mortality or growth inhibition) at 200 ppm (Plutella xylostella) | mortality at 200 ppm (Spodoptera littoralis [1]) | mortality at 200 ppm (Tetranychus urticae) | mortality at 200 ppm (Myzus persicae) | percent control (mortality, anti-feedant effect or growth inhibition) at 12.5 ppm (Spodoptera littoralis [2]) | percent effect (mortality or growth inhibition) at 200 ppm (Euschistus heros)

Cc1cc(C2=NO[C@@](c3cc(Cl)cc(C(F)(F)F)c3)(C(F)(F)F)C2)ccc1C(=O)N[C@H]1CON(S(=O)(=O)N(C)C)C1 [Compound A91]
≥ 80%: percent effect (mortality or growth inhibition) at 200 ppm (Diabrotica balteata) | mortality at 200 ppm (Thrips tabaci) | percent effect (mortality or growth inhibition) at 200 ppm (Plutella xylostella) | mortality at 200 ppm (Spodoptera littoralis [1]) | mortality at 200 ppm (Tetranychus urticae) | mortality at 200 ppm (Myzus persicae) | percent control (mortality, anti-feedant effect or growth inhibition) at 12.5 ppm (Spodoptera littoralis [2]) | percent effect (mortality or growth inhibition) at 200 ppm (Euschistus heros)

Cc1cc(C2=NO[C@@](c3cc(Cl)cc(Cl)c3)(C(F)(F)F)C2)ccc1C(=O)NC1CON(S(C)(=O)=O)C1 (some centres unmarked) [Compound A40]
≥ 80%: percent effect (mortality or growth inhibition) at 200 ppm (Diabrotica balteata) | mortality at 200 ppm (Thrips tabaci) | percent effect (mortality or growth inhibition) at 200 ppm (Plutella xylostella) | mortality at 200 ppm (Spodoptera littoralis [1]) | mortality at 200 ppm (Tetranychus urticae) | mortality at 200 ppm (Myzus persicae) | percent control (mortality, anti-feedant effect or growth inhibition) at 12.5 ppm (Spodoptera littoralis [2]) | percent effect (mortality or growth inhibition) at 200 ppm (Euschistus heros)

CNS(=O)(=O)N1C[C@@H](NC(=O)c2ccc(C3=NO[C@@](c4cc(Cl)cc(Cl)c4)(C(F)(F)F)C3)cc2Cl)CO1 [Compound A114, 2-chloro-4-[(5S)-5-(3,5-dichlorophenyl)-5-(trifluoromethyl)-4H-isoxazol-3-yl]-N-[(4R)-2-(methylsulfamoyl)isoxazolidin-4-yl]benzamide]
≥ 80%: percent effect (mortality or growth inhibition) at 200 ppm (Diabrotica balteata) | mortality at 200 ppm (Thrips tabaci) | percent effect (mortality or growth inhibition) at 200 ppm (Plutella xylostella) | mortality at 200 ppm (Spodoptera littoralis [1]) | mortality at 200 ppm (Tetranychus urticae) | mortality at 200 ppm (Myzus persicae) | percent control (mortality, anti-feedant effect or growth inhibition) at 12.5 ppm (Spodoptera littoralis [2]) | percent effect (mortality or growth inhibition) at 200 ppm (Euschistus heros)

Cc1cc(C2=NO[C@@](c3cc(Cl)c(F)c(Cl)c3)(C(F)(F)F)C2)ccc1C(=O)NC1CON(S(=O)(=O)N(C)C(=O)c2cccnc2)C1 (some centres unmarked) [Compound A78]
≥ 80%: percent effect (mortality or growth inhibition) at 200 ppm (Diabrotica balteata) | mortality at 200 ppm (Thrips tabaci) | percent effect (mortality or growth inhibition) at 200 ppm (Plutella xylostella) | mortality at 200 ppm (Spodoptera littoralis [1]) | mortality at 200 ppm (Tetranychus urticae) | mortality at 200 ppm (Myzus persicae) | percent effect (mortality, anti-feeding or growth inhibition) at 12.5 ppm (Spodoptera littoralis [2]) | percent effect (mortality or growth inhibition) at 200 ppm (Euschistus heros)

CCN(C)S(=O)(=O)N1C[C@@H](NC(=O)c2ccc(C3=NO[C@@](c4cc(Cl)c(F)c(Cl)c4)(C(F)(F)F)C3)cc2Cl)CO1 [Compound A131, 2-chloro-4-[(5S)-5-(3,5-dichloro-4-fluoro-phenyl)-5-(trifluoromethyl)-4H-isoxazol-3-yl]-N-[(4R)-2-[ethyl(methyl)sulfamoyl]isoxazolidin-4-yl]benzamide]
≥ 80%: percent effect (mortality or growth inhibition) at 200 ppm (Diabrotica balteata) | mortality at 200 ppm (Thrips tabaci) | percent effect (mortality or growth inhibition) at 200 ppm (Plutella xylostella) | mortality at 200 ppm (Spodoptera littoralis [1]) | mortality at 200 ppm (Tetranychus urticae) | mortality at 200 ppm (Myzus persicae) | percent control (mortality, anti-feedant effect or growth inhibition) at 12.5 ppm (Spodoptera littoralis [2]) | percent effect (mortality or growth inhibition) at 200 ppm (Euschistus heros)

CS(=O)(=O)N1C[C@@H](NC(=O)c2ccc(C3=NO[C@@](c4cc(Cl)c(F)c(Cl)c4)(C(F)(F)F)C3)cc2Cl)CO1 [Compound A144, 2-chloro-4-[(5S)-5-(3,5-dichloro-4-fluoro-phenyl)-5-(trifluoromethyl)-4H-isoxazol-3-yl]-N-[(4R)-2-methylsulfonylisoxazolidin-4-yl]benzamide]
≥ 80%: percent effect (mortality or growth inhibition) at 200 ppm (Diabrotica balteata) | mortality at 200 ppm (Thrips tabaci) | percent effect (mortality or growth inhibition) at 200 ppm (Plutella xylostella) | mortality at 200 ppm (Spodoptera littoralis [1]) | mortality at 200 ppm (Tetranychus urticae) | mortality at 200 ppm (Myzus persicae) | percent control (mortality, anti-feedant effect or growth inhibition) at 12.5 ppm (Spodoptera littoralis [2]) | percent effect (mortality or growth inhibition) at 200 ppm (Euschistus heros)

Cc1cc(C2=NO[C@@](c3cc(Cl)c(F)c(Cl)c3)(C(F)(F)F)C2)ccc1C(=O)NC1CON(S(=O)(=O)CCl)C1 (stereo partly drawn) [Compound A5, N-[2-(chloromethylsulfonyl)isoxazolidin-4-yl]-4-[(5S)-5-(3,5-dichloro-4-fluoro-phenyl)-5-(trifluoromethyl)-4H-isoxazol-3-yl]-2-methyl-benzamide]
≥ 80%: percent effect (mortality or growth inhibition) at 200 ppm (Diabrotica balteata) | mortality at 200 ppm (Thrips tabaci) | percent effect (mortality or growth inhibition) at 200 ppm (Plutella xylostella) | mortality at 200 ppm (Spodoptera littoralis [1]) | mortality at 200 ppm (Tetranychus urticae) | mortality at 200 ppm (Myzus persicae) | percent control (mortality, anti-feedant effect or growth inhibition) at 12.5 ppm (Spodoptera littoralis [2]) | percent effect (mortality or growth inhibition) at 200 ppm (Euschistus heros)

CNS(=O)(=O)N1CC(NC(=O)c2ccc(C3=NO[C@@](c4cc(Cl)c(F)c(Cl)c4)(C(F)(F)F)C3)cc2C)CO1 (some centres unmarked) [Compound A70]
≥ 80%: percent effect (mortality or growth inhibition) at 200 ppm (Diabrotica balteata) | mortality at 200 ppm (Thrips tabaci) | percent effect (mortality or growth inhibition) at 200 ppm (Plutella xylostella) | mortality at 200 ppm (Spodoptera littoralis [1]) | mortality at 200 ppm (Tetranychus urticae) | mortality at 200 ppm (Myzus persicae) | percent control (mortality, anti-feedant effect or growth inhibition) at 12.5 ppm (Spodoptera littoralis [2]) | percent effect (mortality or growth inhibition) at 200 ppm (Euschistus heros)

C=Cc1cc(C2=NOC(c3cc(Cl)cc(Cl)c3)(C(F)(F)F)C2)ccc1C(=O)NC1CON(S(C)(=O)=O)C1 (centres unmarked) [Compound A65]
≥ 80%: percent effect (mortality or growth inhibition) at 200 ppm (Diabrotica balteata) | mortality at 200 ppm (Thrips tabaci) | percent effect (mortality or growth inhibition) at 200 ppm (Plutella xylostella) | mortality at 200 ppm (Spodoptera littoralis [1]) | mortality at 200 ppm (Tetranychus urticae) | mortality at 200 ppm (Myzus persicae) | percent control (mortality, anti-feedant effect or growth inhibition) at 12.5 ppm (Spodoptera littoralis [2]) | percent effect (mortality or growth inhibition) at 200 ppm (Euschistus heros)

Cc1cc(C2=NO[C@@](c3cccc(C(F)(F)F)c3)(C(F)(F)F)C2)ccc1C(=O)N[C@H]1CON(S(C)(=O)=O)C1 [Compound A159]
≥ 80%: percent effect (mortality or growth inhibition) at 200 ppm (Diabrotica balteata) | mortality at 200 ppm (Thrips tabaci) | percent effect (mortality or growth inhibition) at 200 ppm (Plutella xylostella) | mortality at 200 ppm (Spodoptera littoralis [1]) | mortality at 200 ppm (Tetranychus urticae) | mortality at 200 ppm (Myzus persicae) | percent effect (mortality, anti-feeding or growth inhibition) at 12.5 ppm (Spodoptera littoralis [2]) | percent effect (mortality or growth inhibition) at 200 ppm (Euschistus heros)

CCS(=O)(=O)N1C[C@@H](NC(=O)c2ccc(C3=NO[C@@](c4cc(Cl)c(F)c(Cl)c4)(C(F)(F)F)C3)cc2Cl)CO1 [Compound A146]
≥ 80%: percent effect (mortality or growth inhibition) at 200 ppm (Diabrotica balteata) | mortality at 200 ppm (Thrips tabaci) | percent effect (mortality or growth inhibition) at 200 ppm (Plutella xylostella) | mortality at 200 ppm (Spodoptera littoralis [1]) | mortality at 200 ppm (Tetranychus urticae) | mortality at 200 ppm (Myzus persicae) | percent control (mortality, anti-feedant effect or growth inhibition) at 12.5 ppm (Spodoptera littoralis [2]) | percent effect (mortality or growth inhibition) at 200 ppm (Euschistus heros)

CNS(=O)(=O)N1C[C@@H](NC(=O)c2ccc(C3=NO[C@@](c4cc(Cl)cc(C(F)(F)F)c4)(C(F)(F)F)C3)cc2Cl)CO1 [Compound A115, 2-chloro-4-[(5S)-5-[3-chloro-5-(trifluoromethyl)phenyl]-5-(trifluoromethyl)-4H-isoxazol-3-yl]-N-[(4R)-2-(methylsulfamoyl)isoxazolidin-4-yl]benzamide]
≥ 80%: percent effect (mortality or growth inhibition) at 200 ppm (Diabrotica balteata) | mortality at 200 ppm (Thrips tabaci) | percent effect (mortality or growth inhibition) at 200 ppm (Plutella xylostella) | mortality at 200 ppm (Spodoptera littoralis [1]) | mortality at 200 ppm (Tetranychus urticae) | mortality at 200 ppm (Myzus persicae) | percent control (mortality, anti-feedant effect or growth inhibition) at 12.5 ppm (Spodoptera littoralis [2]) | percent effect (mortality or growth inhibition) at 200 ppm (Euschistus heros)
